Results as given in ChEMBL document CHEMBL4680225, “Design and development of ((4-methoxyphenyl)carbamoyl) (5-(5-nitrothiophen-2-yl)-1,3,4-thiadiazol-2-yl)amide analogues as Mycobacterium tuberculosis ketol-acid reductoisomerase inhibitors” (Eur J Med Chem, 2020).
Converted amounts (≈) assume the structure as drawn.

How the values were obtained:
[1] = system: Mycobacterium tuberculosis; assay: Antitubercular activity against Mycobacterium tuberculosis H37Rv measured after 1 week by microplate alamar blue assay; assay type: functional; conditions: 168 h, time 1 weeks
[2] = system: Mycobacterium tuberculosis; assay: Antitubercular activity against Mycobacterium tuberculosis H37Rv infected in mouse primary macrophages assessed as log reduction in bacterial growth at 10 uM measured after 48 hrs relative to control; assay type: functional, Primary macrophage
[3] = system: Mycobacterium tuberculosis; assay: Antitubercular activity against 6-weeks nutrient starved phase cultures of Mycobacterium tuberculosis H37Rv assessed as log reduction in bacterial growth at 10 uM treated for 7 days measured after 4 weeks relative to control; assay type: functional; conditions: time 5 weeks
[4] = system: Mycobacterium tuberculosis; assay: Antibiofilm activity against Mycobacterium tuberculosis assessed as log reduction in bacterial growth at 10 uM measured after 1 week relative to control; assay type: functional, H37Rv; conditions: time 1 weeks
[5] = system: Mycobacterium tuberculosis; assay: Inhibition of N-terminal 6His-taggged Mycobacterium tuberculosis KARI expressed in Escherichia coli BL21 at 100 uM using 2-acetolactate as substrate preincubated for 30 mins followed by substrate addition in presence of NADPH relative to control
[6] = Inhibition of N-terminal 6His-taggged Mycobacterium tuberculosis KARI expressed in Escherichia coli BL21 using 2-acetolactate as substrate preincubated for 30 mins followed by substrate addition in presence of NADPH
[7] = system: HEK293; assay: Cytotoxicity against HEK293 cells assessed as reduction in cell viability measured after 48 hrs by MTT assay; assay type: cell-based; conditions: Homo sapiens, HEK293, 48 h
[8] = Protection index, ratio IC50 for HEK293 cells to MIC for antitubercular activity against Mycobacterium tuberculosis H37Rv
[9] = system: Mycobacterium tuberculosis; assay: Antitubercular activity against early logarithmic phase cultures of Mycobacterium tuberculosis H37Rv treated for 6 days and measured 2 days post last dose; assay type: functional, organism-based; conditions: time 8.0 day
[10] = system: Mycobacterium tuberculosis; assay: Antitubercular activity against early logarithmic phase cultures of Mycobacterium tuberculosis H37Rv at 1.56 to 100 uM; assay type: functional, organism-based; conditions: dose 1.56-100 µM, TDE = time-dependent effect
[11] = system: Mycobacterium tuberculosis; assay: Antimycobacterial activity against dormant Mycobacterium tuberculosis H37Rv incubated for 7 days under nutrient deprived condition; assay type: functional, organism-based; conditions: time 7.0 day
[12] = system: Mycobacterium tuberculosis; assay: Antimycobacterial activity against dormant Mycobacterium tuberculosis H37Rv under nutrient deprived condition; assay type: functional, organism-based; conditions: TDE = time-dependent effect

| Structure (SMILES) | MIC [1] [µM] | log(activity) [2] | log(activity) [3] | log(activity) [4] | inhibition [5] [%] | Ki [6] [µM] | IC50 [7] [µM] | PI [8] | Activity [9] | Activity [10] | Activity [11] | Activity [12] |
| --- | --- | --- | --- | --- | --- | --- | --- | --- | --- | --- | --- | --- |
| NNC(=O)c1ccncc1 [ISONIAZID] | 0.4 (≈ 0.0549 µg/mL) | 2.5 | 1.5 | 1 | – | – | – | – | – | – | – | – |
| O=[N+]([O-])c1ccc(-c2nnc(NC(=S)Nc3ccc(Cl)cc3)s2)s1 | 25 (≈ 9.95 µg/mL) | – | 1 | 1.2 | > 50 | 8.35 | 102 | 4.1 | – | – | – | – |
| CO[C@H]1/C=C/O[C@@]2(C)Oc3c(C)c(O)c4c(O)c(c(/C=N/N5CCN(C)CC5)c(O)c4c3C2=O)NC(=O)/C(C)=C\C=C\[C@H](C)[C@H](O)[C@@H](C)[C@@H](O)[C@@H](C)[C@H](OC(C)=O)[C@@H]1C [RIFAMPIN] | 0.5 (≈ 0.411 µg/mL) | – | 1.8 | 0.9 | – | – | – | – | – | – | – | – |
| COc1c(N2C[C@@H]3CCCN[C@@H]3C2)c(F)cc2c(=O)c(C(=O)O)cn(C3CC3)c12 [MOXIFLOXACIN] | – | – | 2 | 1.8 | – | – | – | – | – | – | – | – |
| COc1ccc(NC(=S)Nc2nnc(-c3ccc([N+](=O)[O-])s3)s2)cc1 | 0.78 (≈ 0.307 µg/mL) | 2.2 | 1.8 | 1.5 | > 50 | 9.27 | 68.2 | 87.4 | – | – | – | – |
| COc1ccc(NC(=O)Nc2nnc(-c3ccc([N+](=O)[O-])s3)s2)cc1 | – | – | – | – | – | 3.06 | – | – | – | – | – | – |
| O=[N+]([O-])c1ccc(-c2nnc(NC(=S)Nc3ccc(F)cc3)s2)o1 | 0.78 (≈ 0.285 µg/mL) | 1.9 | 2.3 | 1.3 | > 50 | 5.48 | 72.5 | 92.9 | Dose-dependent effect | – | – | – |
| CC(=O)c1ccc(S(=O)(=O)Nc2nnc(-c3ccc([N+](=O)[O-])o3)s2)cc1 | 1.56 (≈ 0.615 µg/mL) | 1.6 | 2.1 | 1.1 | > 50 | 4.72 | 57.1 | 36.6 | – | Tde | Dose-dependent effect | Tde |
| COc1ccc(NC(=S)Nc2nnc(-c3ccc([N+](=O)[O-])o3)s2)cc1 | 0.78 (≈ 0.294 µg/mL) | 1.7 | 2.5 | 1.8 | > 50 | 2.02 | 86 | 110.2 | Dose-dependent effect | – | Dose-dependent effect | Tde |
| CC[C@@H](CO)NCCN[C@@H](CC)CO [ETHAMBUTOL] | 7.63 (≈ 1.56 µg/mL) | – | – | – | – | – | – | – | – | – | – | – |
